From patent US11046672B2, “Indolinones compounds and their use in the treatment of fibrotic diseases” (RESPIVERT LIMITED, priority 2015, dated 2021)
“And” between values parts separate entries of the source, which are not always exact repeats. Equal values may be shown once. Read-outs that look alike come from different tables or passages of the source.

Legend:
[1] = test system: MRC5 cells; assay: Cell viability assay in MRC5 cells (MTT)
[2] = target: T1, PDGFRβ (Homo sapiens (Human), UniProt P09619); conditions: read-out: Ki PDGFRβ; mean, n = 2 unless otherwise indicated
[3] = Pharmacokinetic measurements in rats (intravenous and intra-tracheal dosing); format: in vivo; conditions: rat; for concentration at 0.1 h / concentration at 1.5 h / concentration at 24 h: lung, read-out: lung concentration (nM) at time (h); for Kp at 0.1 h / Kp at 1.5 h / Kp at 24 h: lung/plasma
[4] = target: T1, PDGFRβ; assay: PDGF-BB induced phosphorylation of PDGFRβ in fibroblasts (MRC5 cells, HTRF); format: cell-based; conditions: MRC5 cells; n = 1 unless otherwise indicated; read-out: PDGFBB-induced PDGFRβ phosphorylation in MRC5 cells (IC50)
[5] = PAMPA permeability assay; format: in vitro ADME; conditions: for % Recovery / Papp at 5 h, 10 μM / recovery at 5 hr, 10 μM: PAMPA; for % Recovery / recovery at 5 hr, 10 μM: donor and acceptor compartments; for Papp at 5 h, 10 μM: pH 7, pH 7, 10 μM; for Mean Papp: pH 7, 10 μM; for Papp at 5 h, 10 μM / Mean Papp: 5 hr; for recovery at 5 hr, 10 μM: pH 7, PAMPA
[6] = target: T1, PDGFRβ; assay: Duration of action (washout) against PDGF-BB induced phosphorylation of PDGFRβ in human fetal lung fibroblast cells; format: cell-based; conditions: MRC-5 cells, after wash-out, rhuPDGF-BB; experiments in Groups 1-4
[7] = male, CD, iv, i.v. dosing, 0.1 h
[8] = male, CD, iv, i.v. dosing, 1.5 h
[9] = male, CD, iv, i.v. dosing, 24 h
[10] = male, CD, other: intra-tracheal, i.t. dosing, 0.1 h
[11] = male, CD, other: intra-tracheal, i.t. dosing, 1.5 h
[12] = male, CD, other: intra-tracheal, i.t. dosing, 24 h
[13] = male, CD, iv, i.v. dosing, 0.1 h, read-out: lung/plasma ratio at time(h)
[14] = male, CD, iv, i.v. dosing, 1.5 h, read-out: lung/plasma ratio at time(h)
[15] = male, CD, other: intra-tracheal, i.t. dosing, 0.1 h, read-out: lung/plasma conc ratio at time(h)
[16] = male, CD, other: intra-tracheal, i.t. dosing, 1.5 h, read-out: lung/plasma conc ratio at time(h)
[17] = male, CD, other: intra-tracheal, i.t. dosing, 24 h, read-out: lung/plasma conc ratio at time(h)

T1 sequence (P09619 33-1106): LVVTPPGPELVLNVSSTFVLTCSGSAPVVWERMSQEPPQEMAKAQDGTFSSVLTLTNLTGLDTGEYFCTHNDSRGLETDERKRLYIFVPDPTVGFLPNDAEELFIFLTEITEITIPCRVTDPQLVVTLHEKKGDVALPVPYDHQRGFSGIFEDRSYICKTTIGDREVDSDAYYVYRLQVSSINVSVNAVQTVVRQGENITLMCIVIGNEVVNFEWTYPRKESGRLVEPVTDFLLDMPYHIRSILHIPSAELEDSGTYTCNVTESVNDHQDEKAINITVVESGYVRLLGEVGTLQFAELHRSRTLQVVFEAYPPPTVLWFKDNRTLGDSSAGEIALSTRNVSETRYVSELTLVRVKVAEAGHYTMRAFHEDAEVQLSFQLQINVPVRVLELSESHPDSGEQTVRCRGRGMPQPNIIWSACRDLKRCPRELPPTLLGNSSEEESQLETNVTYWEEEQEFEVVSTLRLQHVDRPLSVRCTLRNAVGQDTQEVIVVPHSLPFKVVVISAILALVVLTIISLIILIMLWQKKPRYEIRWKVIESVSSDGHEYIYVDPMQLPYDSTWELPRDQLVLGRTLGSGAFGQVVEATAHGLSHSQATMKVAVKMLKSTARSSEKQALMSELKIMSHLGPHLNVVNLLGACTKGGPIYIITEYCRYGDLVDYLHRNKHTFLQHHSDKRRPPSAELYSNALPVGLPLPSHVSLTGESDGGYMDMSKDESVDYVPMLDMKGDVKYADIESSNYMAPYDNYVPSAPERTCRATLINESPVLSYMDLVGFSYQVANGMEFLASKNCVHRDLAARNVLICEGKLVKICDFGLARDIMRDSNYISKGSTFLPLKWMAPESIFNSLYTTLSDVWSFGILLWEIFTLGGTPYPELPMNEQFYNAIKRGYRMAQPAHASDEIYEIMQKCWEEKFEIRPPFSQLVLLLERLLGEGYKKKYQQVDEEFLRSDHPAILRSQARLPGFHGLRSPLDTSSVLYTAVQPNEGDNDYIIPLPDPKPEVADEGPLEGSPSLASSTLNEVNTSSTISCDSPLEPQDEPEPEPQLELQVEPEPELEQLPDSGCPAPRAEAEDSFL

| SMILES | Ki [2] [nM] | IC50 [4] [nM] | Papp at 5 h, 10 μM [5] [×10⁻⁶ cm/s] | recovery at 5 hr, 10 μM [5] [%] | Cell viability at 100 nM (%) [1] [%] | Cell viability at 300 nM (%) [1] [%] | Cell viability at 1000 nM (%) [1] [%] | concentration at 0.1 h [3, 7] [nM] | concentration at 1.5 h [3, 8] [nM] | concentration at 24 h [3, 9] [nM] | concentration at 0.1 h [3, 10] [nM] | concentration at 1.5 h [3, 11] [nM] | concentration at 24 h [3, 12] [nM] | Kp at 0.1 h [3, 13] | Kp at 1.5 h [3, 14] | Kp at 0.1 h [3, 15] | Kp at 1.5 h [3, 16] | Kp at 24 h [3, 17] | Lung conc i.t./i.v. Ratio at time (h) ([3]; 0.1 h) | Lung conc i.t./i.v. Ratio at time (h) ([3]; 1.5 h) | also measured |
| --- | --- | --- | --- | --- | --- | --- | --- | --- | --- | --- | --- | --- | --- | --- | --- | --- | --- | --- | --- | --- | --- |
| COC(=O)c1ccc2c(c1)NC(=O)/C2=C(\Nc1ccc(C(=O)NOCCN(C)C)cc1)c1ccccc1 [Example 3, (Z)-Methyl 3-(((4-((2-(dimethylamino)ethoxy)carbamoyl)phenyl)amino)(phenyl)methylene)-2-oxoindoline-6-carboxylate] | 11.4 | 7.14 | 0.0384 |  | 106 | 85.4 | 67.2 | 719 | 325 | 28 | 6690 | 1680 | 247 | 126 | 315 | 176 | 1430 | 503 | 9.3 | 5.2 | MRT ([3]; male, CD, plasma, iv, i.v. dosing): 3 h; clearance ([3]; male, CD, plasma, iv, i.v. dosing (i.v. dose 0.1-0.5 per compound)): 285 mL/min/kg; Vd ([3]; male, CD, plasma, iv, i.v. dosing, read-out: Vss): 51 L/kg; half-life ([3]; male, CD, plasma, iv, i.v. dosing, read-out: t½ (converted)): 3.1 h; Lung conc i.t./i.v. Ratio at time (h) ([3]; 24 h): 8.8; i.t. BAV (%) ([3]; i.t. dosing (i.t. dose 0.1-0.5 per compound)): 325%; BAL % administered dose at time (h) ([3]; i.t. dosing, 0.1 h): 3%; BAL % administered dose at time (h) ([3]; i.t. dosing, 1.5 h): 0.3%; BAL % administered dose at time (h) ([3]; i.t. dosing, 24 h): 0.1%; BAL % administered dose at time (h) ([3]; i.v. dosing, 0.1 h): 0.03%; BAL % administered dose at time (h) ([3]; i.v. dosing, 1.5 h): 0.02%; BAL % administered dose at time (h) ([3]; i.v. dosing, 24 h): BLQ; % Recovery [5]: 76% and 55.3%; Mean Papp [5]: 0.023 10^−6 cm s^−1; % phos: percentage phosphorylation after wash-out relative to maximal phosphorylation (100%) [6]: 34.6% |
| COC(=O)c1ccc2c(c1)NC(=O)/C2=C(\Nc1ccc(S(=O)(=O)NOCCN(C)C)cc1)c1ccccc1 [Example 15] | 21.7 | 19.9 | 0.0756 | 37.6 | 106.9 | 99 | 97.5 | 501 | 209 | 66 | 3430 | 1370 | 135 | 55 | 62 | 177 | 884 | 314 | 6.9 | 6.6 | Kp at 24 h ([3]; male, CD, iv, i.v. dosing, 24 h, read-out: lung/plasma ratio at time(h)): 103; Lung conc i.t./i.v. Ratio at time (h) ([3]; 24 h): 2.0; BAL % administered dose at time (h) ([3]; i.t. dosing, 0.1 h): 2.4%; BAL % administered dose at time (h) ([3]; i.t. dosing, 1.5 h): 0.6%; BAL % administered dose at time (h) ([3]; i.t. dosing, 24 h): 0.1%; BAL % administered dose at time (h) ([3]; i.v. dosing, 0.1 h): 0.09%; BAL % administered dose at time (h) ([3]; i.v. dosing, 1.5 h): 0.02%; BAL % administered dose at time (h) ([3]; i.v. dosing, 24 h): 0.01% |
| COC(=O)c1ccc2c(c1)NC(=O)/C2=C(\Nc1ccc(C(=O)NOCCN2CCC(C#N)CC2)cc1)c1ccccc1 [Example 43] | 32.4 | 25.7 | 0.00798 | 75.3 | 96.5 | 91.8 | 83.9 |  |  |  |  |  |  |  |  |  |  |  |  |  |  |
| COC(=O)c1cc2c(cc1C)/C(=C(/Nc1ccc(C(=O)NOCCN3CCCCC3)cc1)c1ccccc1)C(=O)N2 [Example 49] | 31.1 | 40.2 | 0.0768 | 75.2 | 124.5 | 110.8 | 69.4 |  |  |  |  |  |  |  |  |  |  |  |  |  |  |

The next lines start with results.

| Ki [2] [nM] | IC50 [4] [nM] | Papp at 5 h, 10 μM [5] [×10⁻⁶ cm/s] | recovery at 5 hr, 10 μM [5] [%] | SMILES | Cell viability at 100 nM (%) [1] [%] | Cell viability at 300 nM (%) [1] [%] | Cell viability at 1000 nM (%) [1] [%] | concentration at 0.1 h [3, 7] [nM] | concentration at 1.5 h [3, 8] [nM] | concentration at 24 h [3, 9] [nM] | concentration at 0.1 h [3, 10] [nM] | concentration at 1.5 h [3, 11] [nM] | concentration at 24 h [3, 12] [nM] | Kp at 0.1 h [3, 13] | Kp at 1.5 h [3, 14] | Kp at 0.1 h [3, 15] | Kp at 1.5 h [3, 16] | Kp at 24 h [3, 17] | Lung conc i.t./i.v. Ratio at time (h) ([3]; 0.1 h) | Lung conc i.t./i.v. Ratio at time (h) ([3]; 1.5 h) | also measured |
| --- | --- | --- | --- | --- | --- | --- | --- | --- | --- | --- | --- | --- | --- | --- | --- | --- | --- | --- | --- | --- | --- |
| 9.24 | 9.42 | 0.0566 | 179 | COC(=O)c1cc2c(cc1C)/C(=C(/Nc1ccc(C(=O)NOCCN3CCC(N(C)C)CC3)cc1)c1ccccc1)C(=O)N2 [Example 50] | 107.5 | 92.6 | 69.7 |  |  |  |  |  |  |  |  |  |  |  |  |  |  |
| 9.44 | 9.39 | 0.00306 | 62 | COC(=O)c1cc2c(cc1C)/C(=C(/Nc1ccc(C(=O)NOCCN3CC[C@H](N(C)C)C3)cc1)c1ccccc1)C(=O)N2 [Example 51] | 86.5 | 85.8 | 71.2 |  |  |  |  |  |  |  |  |  |  |  |  |  | % Recovery [5]: 74.7%; Mean Papp [5]: 0.00474 10^−6 cm s^−1 |
